We go through twelve compounds from PubChem BioAssay (NCI).

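The compound was tested at five concentrations on cells cultured in 96-well plates, with a 48-hour exposure period. The concentration for full growth arrest is given as TGI.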 Where only a bound is given, the exact number is not on record here.

Test systems include EKVX NSCLC; HCC-2998 colon; HOP-92 NSCLC; MDA-MB-231 breast; MDA-MB-435; MDA-N; MOLT-4 leukemia; NCI-H23 lung; SR leukemia; SW-620 colon.
Holding throughout (assay): NCI tumour cell line growth inhibition, 48 h

Take `Cn1c(-c2cccs2)cc(-c2ccccc2)c1-c1cccs1`: the TGI in the experiment on EKVX NSCLC, in the experiment on HCC-2998 colon, in the experiment on HOP-92 NSCLC, with MDA-MB-231 breast, in the experiment on MDA-MB-435 and in the experiment with MDA-N was > 100 µM each time. Further, the TGI in the experiment with MOLT-4 leukemia, in the experiment with NCI-H23 lung, in the experiment with SR leukemia and in the experiment on SW-620 colon was > 100 µM throughout.
For `COc1ccc2c(c1)CCN=C2Cc1cc(OC)c(OC)cc1CCCl`, the TGI with EKVX NSCLC, with HCC-2998 colon, with HOP-92 NSCLC, in the experiment with MDA-MB-231 breast, in the experiment on MDA-MB-435 and in the experiment with MDA-N was > 100 µM in each case. For the same compound, the TGI in the experiment on MOLT-4 leukemia, with NCI-H23 lung, in the experiment with SR leukemia and with SW-620 colon was > 100 µM each time.
Regarding `Cc1cc2c(cc1Cl)SC(c1ccccc1)C(=O)NS2(=O)=O` (stereo not given), the TGI was > 100 µM in the experiment on EKVX NSCLC; 70.8 µM in the experiment on HCC-2998 colon; > 100 µM in the experiment with HOP-92 NSCLC; > 100 µM with MDA-MB-231 breast; > 100 µM in the experiment with MDA-MB-435; > 100 µM in the experiment with MDA-N. The TGI is 60.7 µM in the experiment on MOLT-4 leukemia, 56.2 µM in the experiment on NCI-H23 lung, 73.8 µM with SR leukemia and > 100 µM in the experiment on SW-620 colon.
As to `CCOC(=O)C[C@@H]1C2(C=C[C@@]13CO3)OCC(C)(C)CO2`, the TGI in the experiment with EKVX NSCLC, in the experiment on HCC-2998 colon, with HOP-92 NSCLC, with MDA-MB-231 breast, with MDA-MB-435 and in the experiment on MDA-N was > 100 µM in each case. The TGI in the experiment on MOLT-4 leukemia, in the experiment with NCI-H23 lung, with SR leukemia and with SW-620 colon was > 100 µM throughout.
`CCCCCCNC(=O)c1cc(CCc2cc(O)ccc2O)ccc1O`: the TGI in the experiment with EKVX NSCLC was determined as 15.8 µM; in the experiment with HCC-2998 colon, 9.68 µM; in the experiment on HOP-92 NSCLC, 3.87 µM; with MDA-MB-231 breast, 5.8 µM; in the experiment with MDA-MB-435 it was 19.6 µM; in the experiment with MDA-N, 9.54 µM. Besides, the TGI is > 24.5 µM in the experiment with MOLT-4 leukemia, 28.5 µM in the experiment with NCI-H23 lung, > 29 µM with SR leukemia and > 75.9 µM in the experiment with SW-620 colon.
In the case of `O=C1CS(=O)(=O)C(c2cccc(Oc3ccccc3)c2)N1c1cccc(Cl)c1` (stereo not given), the TGI is 61.9 µM in the experiment on EKVX NSCLC; 15.7 µM with HCC-2998 colon; 40.5 µM with HOP-92 NSCLC; > 100 µM with MDA-MB-231 breast; 65.8 µM in the experiment on MDA-MB-435; 49.2 µM in the experiment with MDA-N. In addition, the TGI in the experiment with MOLT-4 leukemia is 58.1 µM; in the experiment with NCI-H23 lung, > 100 µM; in the experiment on SR leukemia, 41.2 µM; in the experiment on SW-620 colon it was > 100 µM.
For the compound `N#CC(c1ccnc(Cl)n1)c1nc2ccccc2s1` (stereo not given), the TGI was > 74.6 µM in the experiment on EKVX NSCLC; 46.8 µM in the experiment with HCC-2998 colon; 14.1 µM in the experiment on HOP-92 NSCLC; 12.3 µM with MDA-MB-231 breast; > 100 µM in the experiment on MDA-MB-435; 12.9 µM with MDA-N. Further, the TGI in the experiment on MOLT-4 leukemia is > 39.3 µM; with NCI-H23 lung it was 15.6 µM; with SR leukemia, 28.7 µM; with SW-620 colon it was > 70.7 µM.
As for `CC(=O)c1c(SCCN2CCCC2)n(-c2ccccc2)c(=S)n(-c2ccccc2)c1=O`, the TGI with EKVX NSCLC stood at 37.3 µM; with HCC-2998 colon, 11.9 µM; with HOP-92 NSCLC it was 18.2 µM; in the experiment on MDA-MB-231 breast, 23.4 µM; with MDA-MB-435 it was 13.2 µM; in the experiment on MDA-N, 19.9 µM. In addition, the TGI in the experiment with MOLT-4 leukemia is > 23.4 µM; in the experiment with NCI-H23 lung, 37.4 µM; in the experiment with SR leukemia, > 100 µM; with SW-620 colon, 6.76 µM.
With `CC(=O)Nc1ccc(N=C2C(c3ccccc3)=C(SC3=C(c4ccccc4)C(=Nc4ccc(NC(C)=O)cc4)c4ccccc43)c3ccccc32)cc1`, the TGI in the experiment with EKVX NSCLC, in the experiment on HCC-2998 colon, in the experiment with HOP-92 NSCLC, in the experiment on MDA-MB-231 breast, with MDA-MB-435 and in the experiment on MDA-N was > 100 µM throughout. Also, the TGI was 63 µM in the experiment on MOLT-4 leukemia, 99.8 µM with NCI-H23 lung, > 100 µM in the experiment on SR leukemia and > 100 µM in the experiment with SW-620 colon.
With `CC(C)(C)OC(=O)NCC(=O)NC1c2ccsc2/C(=N/O)[C@H]1O` (stereo not given in full), the TGI in the experiment with EKVX NSCLC, in the experiment on HCC-2998 colon, in the experiment with HOP-92 NSCLC, in the experiment with MDA-MB-231 breast, with MDA-MB-435 and with MDA-N was > 100 µM throughout. Moreover, the TGI in the experiment with MOLT-4 leukemia, in the experiment with NCI-H23 lung, in the experiment with SR leukemia and with SW-620 colon was > 100 µM each time.
On to `CC(=O)Oc1c(C)c2c(O)c3c1C1=C(OCOC1=C(C)C3=O)/C(C)=C\C(C)(O)C(O)C(C)C(O)C1C(=O)OC(C(C)C1O)C(C)(O)/C=C/C=C(C)C(=O)N2` (stereo not given), for which the TGI in the experiment on EKVX NSCLC, in the experiment with HCC-2998 colon, with HOP-92 NSCLC, in the experiment on MDA-MB-231 breast, with MDA-MB-435 and in the experiment on MDA-N was > 100 µM throughout. Further, the TGI is > 100 µM with MOLT-4 leukemia, > 100 µM with NCI-H23 lung, 83.3 µM in the experiment with SR leukemia and > 100 µM in the experiment on SW-620 colon.
For `CCN1C=C/C(=C\C=C/c2cc[n+](CC)c3ccccc23)c2ccccc21`, the TGI worked out at 47 µM in the experiment with EKVX NSCLC; 19 µM in the experiment with HCC-2998 colon; 37.5 µM in the experiment with HOP-92 NSCLC; 9.32 µM with MDA-MB-231 breast; 14.2 µM in the experiment with MDA-MB-435; 19.3 µM in the experiment with MDA-N. The TGI amounted to 19.7 µM in the experiment with MOLT-4 leukemia, 11.7 µM with NCI-H23 lung, 9.65 µM with SR leukemia and 16.2 µM with SW-620 colon.
